Data taken from ChEMBL document CHEMBL5724914, “Linking interpersonal differences in gut microbiota composition and drug biotransformation activity” (2024).

conditions: human gut metagenome, 24 h, 2 µM
Note: call rule not given here.

Row | Structure (SMILES) | Bacterial Biotransformation
1 | CN/C(=N/CCSCc1nc[nH]c1C)NC#N [CIMETIDINE] | Compound metabolized
2 | CCN(CC)CCOCCOC(=O)C1(c2ccccc2)CCCC1.O=C(O)CC(O)(CC(=O)O)C(=O)O [CARBETAPENTANE CITRATE] | Compound metabolized

test: (§1) The drug is tested on WLS-350 corresponding to human gut metagenome with ENA study accession number: PRJEB37062 and ENA sample accession number: ERS12561789 for biotransformation under anaerobic condition. The drug concentrations were measured over 9 timepoints collected between 0 and 24 hours of incubation by liquid-chromatography-coupled mass spectrometry (LC–MS); conditions: 2 µM

Row | Structure (SMILES) | Bacterial Biotransformation
3 | CN/C(=N/CCSCc1nc[nH]c1C)NC#N [CIMETIDINE] | Compound NOT metabolized
4 | CCN(CC)CCOCCOC(=O)C1(c2ccccc2)CCCC1.O=C(O)CC(O)(CC(=O)O)C(=O)O [CARBETAPENTANE CITRATE] | Compound NOT metabolized

conditions: human gut metagenome, 24 h, 2 µM; remark: another data set of the same source

Row | Structure (SMILES) | Bacterial Biotransformation
5 | CN/C(=N/CCSCc1nc[nH]c1C)NC#N [CIMETIDINE] | Compound NOT metabolized
6 | CCN(CC)CCOCCOC(=O)C1(c2ccccc2)CCCC1.O=C(O)CC(O)(CC(=O)O)C(=O)O [CARBETAPENTANE CITRATE] | Compound metabolized

conditions: human gut metagenome, 24 h, 2 µM; remark: another data set of the same source

Row | Structure (SMILES) | Bacterial Biotransformation
7 | CN/C(=N/CCSCc1nc[nH]c1C)NC#N [CIMETIDINE] | Compound metabolized
8 | CCN(CC)CCOCCOC(=O)C1(c2ccccc2)CCCC1.O=C(O)CC(O)(CC(=O)O)C(=O)O [CARBETAPENTANE CITRATE] | Compound NOT metabolized

test: as §1, with “Z-005” for “WLS-350”, “to” for “to human gut”, “ERS12561805” for “ERS12561789”; conditions: 2 µM

Row | Structure (SMILES) | Bacterial Biotransformation
9 | CN/C(=N/CCSCc1nc[nH]c1C)NC#N [CIMETIDINE] | Compound metabolized
10 | CCN(CC)CCOCCOC(=O)C1(c2ccccc2)CCCC1.O=C(O)CC(O)(CC(=O)O)C(=O)O [CARBETAPENTANE CITRATE] | Compound metabolized

test: as §1, with “Z-007” for “WLS-350”, “rat” for “human”, “ERS12561807” for “ERS12561789”; conditions: 2 µM

Row | Structure (SMILES) | Bacterial Biotransformation
11 | CN/C(=N/CCSCc1nc[nH]c1C)NC#N [CIMETIDINE] | Compound NOT metabolized
12 | CCN(CC)CCOCCOC(=O)C1(c2ccccc2)CCCC1.O=C(O)CC(O)(CC(=O)O)C(=O)O [CARBETAPENTANE CITRATE] | Compound NOT metabolized

conditions: human gut metagenome, 24 h, 2 µM; remark: another data set of the same source

Row | Structure (SMILES) | Bacterial Biotransformation
13 | CN/C(=N/CCSCc1nc[nH]c1C)NC#N [CIMETIDINE] | Compound NOT metabolized
14 | CCN(CC)CCOCCOC(=O)C1(c2ccccc2)CCCC1.O=C(O)CC(O)(CC(=O)O)C(=O)O [CARBETAPENTANE CITRATE] | Compound metabolized

conditions: human gut metagenome, 24 h, 2 µM; remark: another data set of the same source

Row | Structure (SMILES) | Bacterial Biotransformation
15 | CN/C(=N/CCSCc1nc[nH]c1C)NC#N [CIMETIDINE] | Compound metabolized
16 | CCN(CC)CCOCCOC(=O)C1(c2ccccc2)CCCC1.O=C(O)CC(O)(CC(=O)O)C(=O)O [CARBETAPENTANE CITRATE] | Compound metabolized

conditions: human gut metagenome, 24 h, 2 µM; remark: another data set of the same source

Row | Structure (SMILES) | Bacterial Biotransformation
17 | CN/C(=N/CCSCc1nc[nH]c1C)NC#N [CIMETIDINE] | Compound metabolized
18 | CCN(CC)CCOCCOC(=O)C1(c2ccccc2)CCCC1.O=C(O)CC(O)(CC(=O)O)C(=O)O [CARBETAPENTANE CITRATE] | Compound metabolized

test: as §1, with “WLS-240” for “WLS-350”, “ERS12561773” for “ERS12561789”; conditions: 2 µM

Row | Structure (SMILES) | Bacterial Biotransformation
19 | CN/C(=N/CCSCc1nc[nH]c1C)NC#N [CIMETIDINE] | Compound metabolized
20 | CCN(CC)CCOCCOC(=O)C1(c2ccccc2)CCCC1.O=C(O)CC(O)(CC(=O)O)C(=O)O [CARBETAPENTANE CITRATE] | Compound metabolized

test: as §1, with “WLS-082” for “WLS-350”, “ERS12561751” for “ERS12561789”; conditions: 2 µM

Row | Structure (SMILES) | Bacterial Biotransformation
21 | CN/C(=N/CCSCc1nc[nH]c1C)NC#N [CIMETIDINE] | Compound metabolized
22 | CCN(CC)CCOCCOC(=O)C1(c2ccccc2)CCCC1.O=C(O)CC(O)(CC(=O)O)C(=O)O [CARBETAPENTANE CITRATE] | Compound metabolized

conditions: human gut metagenome, 24 h, 2 µM; remark: another data set of the same source

Row | Structure (SMILES) | Bacterial Biotransformation
23 | CN/C(=N/CCSCc1nc[nH]c1C)NC#N [CIMETIDINE] | Compound NOT metabolized
24 | CCN(CC)CCOCCOC(=O)C1(c2ccccc2)CCCC1.O=C(O)CC(O)(CC(=O)O)C(=O)O [CARBETAPENTANE CITRATE] | Compound metabolized

test: as §1, with “Z-012” for “WLS-350”, “to” for “to human gut”, “ERS12561812” for “ERS12561789”; conditions: 2 µM

Row | Structure (SMILES) | Bacterial Biotransformation
25 | CN/C(=N/CCSCc1nc[nH]c1C)NC#N [CIMETIDINE] | Compound metabolized
26 | CCN(CC)CCOCCOC(=O)C1(c2ccccc2)CCCC1.O=C(O)CC(O)(CC(=O)O)C(=O)O [CARBETAPENTANE CITRATE] | Compound NOT metabolized

conditions: human gut metagenome, 24 h, 2 µM; remark: another data set of the same source

Row | Structure (SMILES) | Bacterial Biotransformation
27 | CN/C(=N/CCSCc1nc[nH]c1C)NC#N [CIMETIDINE] | Compound metabolized
28 | CCN(CC)CCOCCOC(=O)C1(c2ccccc2)CCCC1.O=C(O)CC(O)(CC(=O)O)C(=O)O [CARBETAPENTANE CITRATE] | Compound metabolized

conditions: human gut metagenome, 24 h, 2 µM; remark: another data set of the same source

Row | Structure (SMILES) | Bacterial Biotransformation
29 | CN/C(=N/CCSCc1nc[nH]c1C)NC#N [CIMETIDINE] | Compound NOT metabolized
30 | CCN(CC)CCOCCOC(=O)C1(c2ccccc2)CCCC1.O=C(O)CC(O)(CC(=O)O)C(=O)O [CARBETAPENTANE CITRATE] | Compound metabolized

test: as §1, with “Z-018” for “WLS-350”, “pig” for “human”, “ERS12561817” for “ERS12561789”; conditions: 2 µM

Row | Structure (SMILES) | Bacterial Biotransformation
31 | CN/C(=N/CCSCc1nc[nH]c1C)NC#N [CIMETIDINE] | Compound metabolized
32 | CCN(CC)CCOCCOC(=O)C1(c2ccccc2)CCCC1.O=C(O)CC(O)(CC(=O)O)C(=O)O [CARBETAPENTANE CITRATE] | Compound metabolized

test: as §1, with “Z-029” for “WLS-350”, “rat” for “human”, “ERS12561828” for “ERS12561789”; conditions: 2 µM

Row | Structure (SMILES) | Bacterial Biotransformation
33 | CN/C(=N/CCSCc1nc[nH]c1C)NC#N [CIMETIDINE] | Compound NOT metabolized
34 | CCN(CC)CCOCCOC(=O)C1(c2ccccc2)CCCC1.O=C(O)CC(O)(CC(=O)O)C(=O)O [CARBETAPENTANE CITRATE] | Compound NOT metabolized

conditions: human gut metagenome, 24 h, 2 µM; remark: another data set of the same source

Row | Structure (SMILES) | Bacterial Biotransformation
35 | CN/C(=N/CCSCc1nc[nH]c1C)NC#N [CIMETIDINE] | Compound metabolized
36 | CCN(CC)CCOCCOC(=O)C1(c2ccccc2)CCCC1.O=C(O)CC(O)(CC(=O)O)C(=O)O [CARBETAPENTANE CITRATE] | Compound NOT metabolized

test: as §1, with “Z-003” for “WLS-350”, “pig” for “human”, “ERS12561803” for “ERS12561789”; conditions: 2 µM

Row | Structure (SMILES) | Bacterial Biotransformation
37 | CN/C(=N/CCSCc1nc[nH]c1C)NC#N [CIMETIDINE] | Compound NOT metabolized
38 | CCN(CC)CCOCCOC(=O)C1(c2ccccc2)CCCC1.O=C(O)CC(O)(CC(=O)O)C(=O)O [CARBETAPENTANE CITRATE] | Compound metabolized

conditions: human gut metagenome, 24 h, 2 µM; remark: another data set of the same source

Row | Structure (SMILES) | Bacterial Biotransformation
39 | CN/C(=N/CCSCc1nc[nH]c1C)NC#N [CIMETIDINE] | Compound NOT metabolized
40 | CCN(CC)CCOCCOC(=O)C1(c2ccccc2)CCCC1.O=C(O)CC(O)(CC(=O)O)C(=O)O [CARBETAPENTANE CITRATE] | Compound NOT metabolized
